The source of these data is paper PMC7828231, “Delphinidin Increases the Sensitivity of Ovarian Cancer Cell Lines to 3-bromopyruvate” (International Journal of Molecular Sciences, 2021).

The subject of one assay is 22Rν1 cells. More on the design: method as in PMID 18948740. To be noted: cited from earlier work.
The next assay concerns LnCaP cells. More on the design: method as in PMID 27462923. To be noted: starting from a concentration of 50 µM; cited from earlier work.
The subject of a further assay is NCI-H441 cells. More on the design: method as in PMID 24124611. To be noted: cited from earlier work.
The test system of the next assay is SF-268 cells. More on the design: method as in PMID 15680311. To be noted: SF-268, 50–200 µM; cited from earlier work.
In a further assay the test system is PC3 cell line. More on the design: method as in PMID 27462923. To be noted: PC3, up to 150 µM; cited from earlier work.
A further assay has as its system NCI H460 cells. More on the design: method as in PMID 15680311. To be noted: NCI H460, 50–200 µM; cited from earlier work.
The test system of a further assay is DU145 cell line. More on the design: method as in PMID 27462923. To be noted: DU145, up to 150 µM; cited from earlier work.
For a further assay, the system named is HeLa cells. More on the design: method as in PMID 15016660. To be noted: 100–200 µM; cited from earlier work.
The next assay has as its system AGS cells. More on the design: method as in PMID 15680311. To be noted: 50–200 µM; cited from earlier work.
A further assay relates to SK-MES-1 cells. More on the design: method as in PMID 24124611. To be noted: cited from earlier work.
In a further assay the test system is HT29 cells. More on the design: method as in PMID 17729219. To be noted: cited from earlier work.
In the next assay the test system is LoVo cells. More on the design: method as in PMID 20494645. To be noted: LoVo parent cell line; cited from earlier work.
In a further assay the test system is A549 cells. More on the design: method as in PMID 24124611. To be noted: cited from earlier work.
For a further assay, the system named is MCF-7. More on the design: method as in PMID 15680311. To be noted: MCF-7, 50–200 µM; cited from earlier work.
The test system of assay [1] is Multidrug-resistant SKOV3 cells. More on the design: method as in PMID 22954696. To be noted: cited from earlier work.
The subject of the next assay is four OC cell lines. More on the design: method as in PMID 26259240. To be noted: cited from earlier work.
The next assay has as its system PEO1 cells. Put plainly: Cell migration (scraped area closure). In kind it is cell-based, human. How it is done:
Ovarian cancer cells and human normal fibroblasts were seeded on a 24-well plate at a density of 7 × 10^4/well (PEO1), 6.5 × 10^4/well (SKOV3) and 6 × 10^4/well (MRC-5) in 700 µL of appropriate cell medium and cultured at 37 °C to reach 90–95% confluence. Then, the cells in the middle of the wells were scraped off using sterile pipette tips (100 µL), cell debris was removed by washing with medium containing 2% FBS and the tested compounds diluted with medium containing 2% FBS were added. Images of the scraped area were collected after 12 h and 24 h at 10× objective magnification using an Olympus CKX53 microscope with a U-TV0. 5XC-3 digital microscope camera. The obtained results were analyzed using ImageJ software. The percentage of scraped area closure was estimated as the ratio of area measured after 12- or 24-h incubation and the area at the beginning of the experiment.

In assay [2] the test system is not multi-resistant SKOV3 cells. More on the design: method as in PMID 22954696. To be noted: cited from earlier work.

Consider `Oc1cc(O)c2cc(O)c(-c3cc(O)c(O)c(O)c3)[o+]c2c1` [Delphinidin chloride, 3,3′,4′,5,5′,7-hexahydroxyflavylium], for which the IC50 is 90 µM in the assay with 22Rν1 cells; 58 µM in the assay with NCI-H441 cells; 44 µM in the assay with SK-MES-1 cells; 35 µM in the assay with HT29 cells; 38 µM in the assay with LoVo cells; 55 µM with A549 cells. Moreover, the viability entry is “concentration-dependently decreased the viability” in the assay with LnCaP cells; “did not affect significantly the viability” in the assay on SF-268 cells; “did not affect the viability” in the assay with PC3 cell line; “did not affect significantly the viability” in the assay on NCI H460 cells; “did not affect the viability” in the assay on DU145 cell line; “decreased the viability” in the assay on HeLa cells. Besides, the viability entry in the assay with AGS cells is recorded as “did not affect significantly the viability”; with MCF-7, “decreased, concentration-dependently, the viability”.
Regarding `O=C(O)C(=O)CBr` [3-BP, 3-bromopyruvic acid], the IC50 in [1] was 22 ± 4 µM; in the assay with four OC cell lines, 16 to 84 µM; in [2] it was 19 ± 3 µM. For the same molecule, the cell migration entry in the assay with PEO1 cells was “significantly inhibited”.

For orientation: IC50 means the concentration at which inhibition is half-maximal.
